One series has as its target T1, CYP82X2 (UniProt D5J9U8+I3PLR0).
T1 construct: the full-length coding regions of CYP82X1 and CYP82X2 were inserted into the NotI and SpeI restriction sites; FLAG; made in house; host or cells: Saccharomyces cerevisiae YPL 154C:Pep4, microsomal fraction
T1 sequence (D5J9U8+I3PLR0 with tags, fused parts or gaps): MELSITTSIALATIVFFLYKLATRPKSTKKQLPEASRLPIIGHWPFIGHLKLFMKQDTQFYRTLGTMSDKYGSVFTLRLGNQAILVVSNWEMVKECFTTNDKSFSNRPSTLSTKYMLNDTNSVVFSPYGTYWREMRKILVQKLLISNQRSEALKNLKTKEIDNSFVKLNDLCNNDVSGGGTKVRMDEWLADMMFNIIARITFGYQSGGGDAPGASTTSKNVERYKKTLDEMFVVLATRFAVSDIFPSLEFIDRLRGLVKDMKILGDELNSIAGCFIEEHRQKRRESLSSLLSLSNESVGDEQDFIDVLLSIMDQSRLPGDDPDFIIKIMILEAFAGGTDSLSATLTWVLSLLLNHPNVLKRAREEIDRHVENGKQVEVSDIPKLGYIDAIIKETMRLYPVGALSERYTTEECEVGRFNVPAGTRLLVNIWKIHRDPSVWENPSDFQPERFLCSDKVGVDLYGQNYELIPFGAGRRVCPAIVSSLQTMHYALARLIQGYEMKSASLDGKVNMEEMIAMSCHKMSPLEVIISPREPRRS
Nature of the series: In vitro enzyme assay with yeast microsomal fractions containing CYP82X2 (CPR/82X2). To be noted: yeast microsomes (CPR/82X2), extracted ion chromatograms, FIG. 13. Format: biochemical, Papaver somniferum. From the text: (§1) The full-length coding region of CYP82X1 was amplified using cDNA derived from total stem RNA of the Bea's Choice chemotype using Takara Ex Taq DNA polymerase (Fisher Scientific, Ottawa, Canada), and using a primer 5′-[…]-3′ (SEQ ID NO: 607) and reverse primer 5′-[…]-3′ (SEQ ID NO: 608). Owing to problems with heterologous expression in yeast, CYP82X2 was synthesized with the first 60 N-terminal amino acids replaced with the first 43 N-terminal amino acids from the lettuce cytochrome P450 germacrene A oxidase Nguyen, D. T. et al. J. Biol. Chem. 285, 16588-16598 (2010). For heterologous expression of Flag-tagged CYPs in yeast (Saccharomyces cerevisiae), the full-length coding regions of CYP82X1 and CYP82X2 were inserted into the NotI and SpeI restriction sites of the dual plasmid pESC-leu2d::CPR Ro, D.-K., Ouellet, M., Paradise, E. M., Burd, H., Eng, D., Paddon, C. J., Newman, J. D., & Keesling, J. D. BMC Biotech. 8, 83 (2008) yielding pESC-Leu2d::CYP82X1/CPR and pESC-Leu2d::CYP82X2/CPR. The protease-deficient yeast strain YPL 154C:Pep4 was transformed with pESC-Leu2d::CYP82X1/CPR and pESC-Leu2d::CYP82X2/CPR. Yeast culture, microsome preparation, and immunoblot analysis were performed as described previously Dang, T.-T. T. & Facchini, P. J. J. Biol. Chem. 289, 2013-2026 (2014). For heterologous expression of CXE1, CXE2, and AT1, corresponding open reading frames were amplified using cDNA derived from total stem RNA of the Bea's Choice chemotype and cloned in-frame an N-terminal His-tag sequence in the Escherichia coli expression vector pRSETA (Invitrogen, Carlsbad, Calif.). CXE1 and CXE2 were individually inserted into the SacI and HindIII restriction sties, whereas AT1 was inserted into the KpnI and HindIII sites, of pRSETA using a primer 5′-[…]-3′ (SEQ ID NO: 609) and reverse primer 5′-[…]-3′ (SEQ ID NO: 610). […] Microsomal fractions containing recombinant CYP82X1 or CYP82X2 were detected using a-FLAG antibodies, whereas recombinant CPR was detected using α-c-Myc antibodies (FIG. 12 A). […]

In a further series the target is T2, CYP82X1 (Papaver somniferum, UniProt I3V6B7).
T2 construct: The full-length coding region of CYP82X1 was amplified using cDNA derived from total stem RNA of the Bea's Choice chemotype; FLAG; made in house; host or cells: Saccharomyces cerevisiae YPL 154C:Pep4, microsomal fraction
T2 sequence (I3V6B7 1-540): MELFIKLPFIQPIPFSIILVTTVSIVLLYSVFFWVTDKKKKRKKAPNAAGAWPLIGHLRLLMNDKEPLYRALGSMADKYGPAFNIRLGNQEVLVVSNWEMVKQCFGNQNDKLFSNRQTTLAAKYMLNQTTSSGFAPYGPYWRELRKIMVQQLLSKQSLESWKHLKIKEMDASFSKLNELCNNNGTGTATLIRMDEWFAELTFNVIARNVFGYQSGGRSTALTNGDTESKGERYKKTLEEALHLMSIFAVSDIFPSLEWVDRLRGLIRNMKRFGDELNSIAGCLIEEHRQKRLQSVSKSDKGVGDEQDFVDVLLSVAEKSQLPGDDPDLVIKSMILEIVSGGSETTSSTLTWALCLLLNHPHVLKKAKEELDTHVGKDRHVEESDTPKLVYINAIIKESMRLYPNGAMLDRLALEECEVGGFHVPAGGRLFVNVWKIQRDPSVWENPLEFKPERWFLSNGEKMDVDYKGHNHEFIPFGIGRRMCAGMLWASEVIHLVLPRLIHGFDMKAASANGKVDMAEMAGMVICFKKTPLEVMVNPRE
Nature of the series: In vitro enzyme assay with yeast microsomal fractions containing CYP82X1 (CPR/82X1). Format: biochemical. Conditions: yeast microsomes (CPR/82X1), extracted ion chromatograms, FIG. 13.
Description: as §1

The target of a further series is CYP82Y1 (Papaver somniferum, UniProt I3PLR1, R101S). To be noted: yeast microsomes, 500 μM NADPH, pH 7.5, 30° C.
Sequence of CYP82Y1 (I3PLR1 whole entry R101S): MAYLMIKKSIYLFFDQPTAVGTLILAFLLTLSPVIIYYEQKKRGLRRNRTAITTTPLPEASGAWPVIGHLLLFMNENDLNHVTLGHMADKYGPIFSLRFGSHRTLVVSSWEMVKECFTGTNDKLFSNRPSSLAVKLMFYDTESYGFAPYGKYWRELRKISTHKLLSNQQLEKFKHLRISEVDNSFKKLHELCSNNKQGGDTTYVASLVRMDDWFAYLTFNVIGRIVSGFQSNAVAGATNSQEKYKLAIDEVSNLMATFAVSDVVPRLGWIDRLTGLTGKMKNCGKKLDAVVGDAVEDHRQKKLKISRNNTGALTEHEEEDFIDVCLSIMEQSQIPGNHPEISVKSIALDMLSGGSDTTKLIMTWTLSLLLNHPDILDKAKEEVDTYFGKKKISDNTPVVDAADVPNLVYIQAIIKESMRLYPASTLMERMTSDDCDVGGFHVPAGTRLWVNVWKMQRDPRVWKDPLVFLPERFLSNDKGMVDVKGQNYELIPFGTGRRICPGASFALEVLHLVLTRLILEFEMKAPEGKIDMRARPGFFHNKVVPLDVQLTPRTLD
Another series has as its target T3, NOS (Papaver somniferum, UniProt I3PLR3).
T3 construct: His-tag (pRSETA leader) (N); made in house; host or cells: Escherichia coli Rosetta (DE3) pLysS
T3 sequence (I3PLR3 1-348): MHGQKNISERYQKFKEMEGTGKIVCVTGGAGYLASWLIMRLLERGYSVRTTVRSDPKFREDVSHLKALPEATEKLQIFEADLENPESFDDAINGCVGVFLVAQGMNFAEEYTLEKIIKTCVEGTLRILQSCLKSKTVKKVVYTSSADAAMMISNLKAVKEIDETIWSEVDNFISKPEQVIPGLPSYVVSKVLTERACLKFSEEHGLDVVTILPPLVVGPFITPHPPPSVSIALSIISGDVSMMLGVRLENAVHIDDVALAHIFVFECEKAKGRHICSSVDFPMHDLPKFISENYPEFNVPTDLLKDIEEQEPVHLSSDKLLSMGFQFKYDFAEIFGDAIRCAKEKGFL
Format: biochemical, opium poppy (Papaver somniferum). To be noted: for Km: cofactor of NOS for the conversion of narcotine hemiacetal to noscapine; for acceptance as substrate / conversion by NOS: recombinant NOS, product detection by LC-MS/MS. From the text: The full-length cDNA sequence of CL1327Contig1 (see: Example 2) was cloned into vector pRSETA in-frame with an N-terminal His-tag and expressed in E. coli as follows. The NOS coding region was amplified from opium poppy stem cDNA using the following primer set: 5′-[…]-3′ (SEQ ID NO: 601) and 5′-[…]-3′ (SEQ ID NO: 602). The NOS cDNA was cloned into the expression vector pRSETA (Invitrogen) at the SacI and KpnI restriction sites in frame with an N-terminal His-tag sequence. The expression construct was transformed into Escherichia coli strain Rosetta (DE3) pLysS (EMD Chemicals, Darmstadt, Germany). Expression of the recombinant gene was induced overnight with 1 mM isopropyl β-D-thiogalactoside (IPTG) at room temperature. Cells were harvested by centrifugation and sonicated in a buffer containing 50 mM sodium phosphate, pH 7.0, 300 mM NaCl, and 10 mM β-mercaptoethanol. After centrifugation at 20,000 g for 10 min, the supernatant was loaded onto Talon cobalt affinity resin (Clontech, Mountain View, Calif.). Purification was performed according to the manufacturer's instruction. The purified, recombinant protein was desalted using an Amicon centrifugal filter −30K (Millipore, Billerica, Mass.) and stored in a buffer containing 50 mM Tris-HCl, pH 8.0, 1 mM EDTA, 1 mM β-mercaptoethanol, and 10% (v/v) glycerol. Protein concentration was determined by the Bradford assay (Bio-Rad, Hercules, Calif.) using bovine serum albumin as the standard.
The purified recombinant NOS enzyme (see: Example 4) was assayed using either narcotine hemiacetal as the substrate (in the presence of either NAD^+ or NADP^+ as cofactor) for dehydrogenase activity, or with noscapine as the substrate (in the presence of NADH or NADPH as the cofactor) for reductase activity. LC-MS/MS was used to identify and quantify product formation (FIG. 7). […] LC-MS/MS and CID spec
In addition to narcotine hemiacetal and noscapine, NOS was also assayed with several other BIAs that could potentially serve as substrates for dehydrogenase/reductase reactions.

In the case of `COc1ccc2c(c1OC)C[N+]1(C)CCc3cc4c(c(O)c3C1C2OC(C)=O)OCO4` [(S)-1-hydroxy-13-O-acetyl-N-methylcanadine], the “conversion as substrate by CYP82X2” value at CYP82X2 was “showed no activity”. At CYP82X1, the “conversion as substrate by CYP82X1” value was “converting (S)-1-hydroxy-13-O-acetyl-N-methylcanadine (m/z 428) to (S)-1,8-dihydroxy-13-O-acetyl-N-methylcanadine”.

For the compound `COc1ccc2c(c1OC)C[N+]1(C)CCc3cc4c(c(O)c3C1C2)OCO4` [(S)-1-hydroxy-N-methylcanadine], the “conversion as substrate by CYP82X2” value at CYP82X2 is reported as “yielding (S)-1,13-dihydroxy-N-methylcanadine”. The “conversion as substrate by CYP82X1” value on CYP82X1 was 4-O-demethylmacrantaldehyde.

With `COc1ccc2c(c1OC)C[N+]1(C)CCc3cc4c(cc3C1C2)OCO4` [(S)—N-methylcanadine], on CYP82Y1, the “conversion as substrate by CYP82Y1” value was “yielding 1-hydroxy-N-methylcanadine”.

With `C[N@@+]12CCc3cc4c(cc3[C@@H]1Cc1ccc3c(c1C2)OCO3)OCO4` [N-methylstylopine, reference compound], the “conversion as substrate by CYP82Y1” value on CYP82Y1 is reported as “give rise to 1-hydroxy-N-methylstylopine”.

As to `NC(=O)c1ccc[n+]([C@@H]2O[C@H](COP(=O)([O-])OP(=O)(O)OC[C@H]3O[C@@H](n4cnc5c(N)ncnc54)[C@H](OP(=O)(O)O)[C@@H]3O)[C@@H](O)[C@H]2O)c1` [NADP^+], the Km at NOS turned out to be 1250 µM.

Regarding `NC(=O)c1ccc[n+]([C@@H]2O[C@H](COP(=O)([O-])OP(=O)(O)OC[C@H]3O[C@@H](n4cnc5c(N)ncnc54)[C@H](O)[C@@H]3O)[C@@H](O)[C@H]2O)c1` [NAD^+], on NOS, the Km came out at 33.1 µM.

For the compound `COc1ccc2c3c1O[C@H]1[C@@H](O)C=C[C@H]4[C@@H](C2)N(C)CC[C@@]341` [codeine], on NOS, the “acceptance as substrate / conversion by NOS” value was “none were accepted by NOS”.

`COc1ccc2c3c1O[C@H]1C(=O)C=C[C@H]4[C@@H](C2)N(C)CC[C@]314` [codeinone]: at NOS, the “acceptance as substrate / conversion by NOS” value is reported as “none were accepted by NOS”.

For the compound `COc1ccc2c(c1OC)C(O)OC2C1c2c(cc3c(c2OC)OCO3)CCN1C` (stereo not drawn) [narcotine hemiacetal], the “affinity of NOS for the alkaloid substrate and corresponding catalytic efficiency” value on NOS (in the presence of NAD^+ compared with NADP^+ as the cofactor) is listed as “significantly higher”. Further, on NOS, the “acceptance as substrate / conversion by NOS” value is on record as “able to oxidize the hydroxyl group on the hemiacetal ring”.

As for `COc1ccc2c(c1OC)C(O)O[C@@H]2[C@H]1c2c(cc3c(c2O)OCO3)CCN1C` (stereo partly drawn) [narcotoline hemiacetal], on NOS, the “acceptance as substrate / conversion by NOS” value is recorded as “yielded a new compound consistent with narcotoline”.

Regarding `COC1=C[C@]23CCN(C)[C@H](Cc4ccc(OC)c(O)c42)C3=CC1=O` [salutaridine], the “acceptance as substrate / conversion by NOS” value at NOS is given as “none were accepted by NOS”.

As for `c1cc2c(c3c1C[C@H]1c4cc5c(cc4CCN1C3)OCO5)OCO2` [stylopine], at NOS, the “acceptance as substrate / conversion by NOS” value is reported as “none were accepted by NOS”.

The values are drawn from patent US10793885B2, “Compositions and methods for making noscapine and synthesis intermediates thereof” (priority 2013, dated 2020).
